Measured values as given in the NIST ThermoML archive (doi:10.1021/je0601457).
± gives the expanded uncertainty stated by the source.

Assay: xn = mol fraction of the nth substance listed

Cc1nccnc1C [2,3-dimethylpyrazine] + O=C=O
Fluid (supercritical or subcritical phases), Linear displacement technique
Details	mass density [kg/m3]
294.15 K, 7140 kPa, x1 = 0.027	905 ± 36
294.15 K, 9590 kPa, x1 = 0.027	934 ± 37
294.15 K, 14100 kPa, x1 = 0.027	983 ± 39
294.55 K, 7140 kPa, x1 = 0.049	1099 ± 46
294.55 K, 7140 kPa, x1 = 0.184	947 ± 38
294.55 K, 8520 kPa, x1 = 0.184	949 ± 38
294.55 K, 10590 kPa, x1 = 0.049	1123 ± 45
294.55 K, 12450 kPa, x1 = 0.184	951 ± 38
294.55 K, 13830 kPa, x1 = 0.049	1142 ± 47
294.75 K, 2240 kPa, x1 = 0.736	861 ± 34
294.75 K, 3830 kPa, x1 = 0.736	864 ± 35
294.75 K, 5690 kPa, x1 = 0.736	864 ± 35
294.75 K, 6720 kPa, x1 = 0.033	836 ± 34
294.75 K, 8450 kPa, x1 = 0.033	858 ± 35
294.75 K, 13830 kPa, x1 = 0.033	911 ± 37
294.85 K, 6660 kPa, x1 = 0.108	899 ± 36
294.85 K, 7070 kPa, x1 = 0.565	958 ± 38
294.85 K, 10070 kPa, x1 = 0.108	901 ± 36
294.85 K, 10620 kPa, x1 = 0.565	961 ± 38
294.85 K, 13620 kPa, x1 = 0.108	904 ± 36
294.85 K, 15240 kPa, x1 = 0.565	964 ± 39
294.85 K, 18660 kPa, x1 = 0.108	908 ± 36
295.05 K, 7070 kPa, x1 = 0.157	995 ± 40
295.05 K, 10310 kPa, x1 = 0.157	1004 ± 40
295.05 K, 13480 kPa, x1 = 0.157	1014 ± 41
295.25 K, 6140 kPa, x1 = 0.086	767 ± 31
295.25 K, 6380 kPa, x1 = 0.057	871 ± 35
295.25 K, 7410 kPa, x1 = 0.057	885 ± 36
295.25 K, 7690 kPa, x1 = 0.01	785 ± 32
295.25 K, 8380 kPa, x1 = 0.086	778 ± 31
295.25 K, 10170 kPa, x1 = 0.057	911 ± 38
295.25 K, 11100 kPa, x1 = 0.01	833 ± 34
295.25 K, 12100 kPa, x1 = 0.086	799 ± 32
295.25 K, 15790 kPa, x1 = 0.01	873 ± 35
295.25 K, 16070 kPa, x1 = 0.086	817 ± 33
296.25 K, 4410 kPa, x1 = 0.433	989 ± 40
296.25 K, 7660 kPa, x1 = 0.433	997 ± 40
296.25 K, 10720 kPa, x1 = 0.433	1002 ± 40
301.75 K, 6620 kPa, x1 = 0.565	938 ± 38
301.75 K, 9830 kPa, x1 = 0.565	941 ± 38
301.75 K, 15790 kPa, x1 = 0.565	946 ± 38
302.65 K, 7520 kPa, x1 = 0.049	902 ± 36
302.65 K, 10030 kPa, x1 = 0.049	934 ± 37
302.65 K, 13030 kPa, x1 = 0.049	962 ± 39
302.65 K, 16660 kPa, x1 = 0.049	1000 ± 40
303.25 K, 7410 kPa, x1 = 0.291	859 ± 35
303.25 K, 9860 kPa, x1 = 0.291	860 ± 34
303.25 K, 15450 kPa, x1 = 0.291	860 ± 34
306.25 K, 7410 kPa, x1 = 0.027	750 ± 31
306.25 K, 9900 kPa, x1 = 0.027	812 ± 33
306.25 K, 13380 kPa, x1 = 0.027	864 ± 35
308.95 K, 7070 kPa, x1 = 0.157	952 ± 40
308.95 K, 9450 kPa, x1 = 0.157	964 ± 39
308.95 K, 13480 kPa, x1 = 0.157	981 ± 39
308.95 K, 17690 kPa, x1 = 0.157	996 ± 40
310.85 K, 6970 kPa, x1 = 0.433	967 ± 39
310.85 K, 12480 kPa, x1 = 0.433	975 ± 39
310.85 K, 21340 kPa, x1 = 0.433	994 ± 40
311.45 K, 7380 kPa, x1 = 0.184	912 ± 37
311.45 K, 9210 kPa, x1 = 0.184	918 ± 37
311.45 K, 12380 kPa, x1 = 0.184	925 ± 37
311.45 K, 16720 kPa, x1 = 0.184	932 ± 37
312.65 K, 10170 kPa, x1 = 0.033	763 ± 31
312.65 K, 12660 kPa, x1 = 0.033	804 ± 33
312.65 K, 15970 kPa, x1 = 0.033	851 ± 34
312.75 K, 8520 kPa, x1 = 0.057	874 ± 35
312.75 K, 9970 kPa, x1 = 0.057	905 ± 37
312.75 K, 10450 kPa, x1 = 0.057	914 ± 38
313.95 K, 10520 kPa, x1 = 0.108	879 ± 35
313.95 K, 13660 kPa, x1 = 0.108	888 ± 36
313.95 K, 17210 kPa, x1 = 0.108	896 ± 36
314.25 K, 9830 kPa, x1 = 0.01	500 ± 40
314.25 K, 11830 kPa, x1 = 0.01	769 ± 32
314.25 K, 18590 kPa, x1 = 0.01	799 ± 32
315.85 K, 9380 kPa, x1 = 0.086	702 ± 29
315.85 K, 12310 kPa, x1 = 0.086	728 ± 29
315.85 K, 16520 kPa, x1 = 0.086	752 ± 30
315.85 K, 24210 kPa, x1 = 0.086	786 ± 31
316.05 K, 7480 kPa, x1 = 0.291	857 ± 34
316.05 K, 8660 kPa, x1 = 0.291	858 ± 34
316.05 K, 11340 kPa, x1 = 0.291	858 ± 35
316.25 K, 6170 kPa, x1 = 0.565	923 ± 37
316.25 K, 10000 kPa, x1 = 0.565	926 ± 37
316.25 K, 16380 kPa, x1 = 0.565	935 ± 37
317.35 K, 5590 kPa, x1 = 0.736	859 ± 34
317.35 K, 11590 kPa, x1 = 0.736	860 ± 34
317.35 K, 16450 kPa, x1 = 0.736	862 ± 34
318.75 K, 7690 kPa, x1 = 0.433	955 ± 38
318.75 K, 16070 kPa, x1 = 0.433	969 ± 39
318.75 K, 22930 kPa, x1 = 0.433	977 ± 39
319.35 K, 10520 kPa, x1 = 0.049	834 ± 34
319.35 K, 15340 kPa, x1 = 0.049	906 ± 36
319.35 K, 18660 kPa, x1 = 0.049	946 ± 38
321.05 K, 10210 kPa, x1 = 0.157	927 ± 38
321.05 K, 12000 kPa, x1 = 0.157	937 ± 38
321.05 K, 16280 kPa, x1 = 0.157	958 ± 38
321.05 K, 18660 kPa, x1 = 0.157	970 ± 39
322.35 K, 11790 kPa, x1 = 0.027	717 ± 30
322.35 K, 13000 kPa, x1 = 0.027	688 ± 28
322.35 K, 13410 kPa, x1 = 0.027	761 ± 47
322.35 K, 15620 kPa, x1 = 0.027	757 ± 31
322.35 K, 16310 kPa, x1 = 0.027	812 ± 33
323.35 K, 10660 kPa, x1 = 0.057	815 ± 33
323.35 K, 11970 kPa, x1 = 0.057	849 ± 34
323.35 K, 16030 kPa, x1 = 0.057	904 ± 36
324.95 K, 7830 kPa, x1 = 0.433	944 ± 38
324.95 K, 13900 kPa, x1 = 0.433	955 ± 38
324.95 K, 20660 kPa, x1 = 0.433	968 ± 39
325.25 K, 6140 kPa, x1 = 0.736	859 ± 34
325.25 K, 10720 kPa, x1 = 0.736	860 ± 34
325.25 K, 18170 kPa, x1 = 0.736	861 ± 34
325.65 K, 10520 kPa, x1 = 0.184	894 ± 36
325.65 K, 12660 kPa, x1 = 0.184	903 ± 36
325.65 K, 18030 kPa, x1 = 0.184	916 ± 37
328.55 K, 10170 kPa, x1 = 0.291	857 ± 35
328.55 K, 10660 kPa, x1 = 0.01	438 ± 63
328.55 K, 10970 kPa, x1 = 0.01	552 ± 44
328.55 K, 11970 kPa, x1 = 0.01	635 ± 32
328.55 K, 12140 kPa, x1 = 0.291	858 ± 34
328.55 K, 13000 kPa, x1 = 0.01	688 ± 29

Liquid, linear displacement
Details	mass density [kg/m3]
294.15 K, x1 = 0.027	868 ± 35
294.55 K, x1 = 0.049	1077 ± 43
294.55 K, x1 = 0.184	945 ± 38
294.75 K, x1 = 0.033	802 ± 32
294.75 K, x1 = 0.736	861 ± 35
294.85 K, x1 = 0.108	896 ± 37
294.85 K, x1 = 0.565	947 ± 38
295.05 K, x1 = 0.157	982 ± 39
295.25 K, x1 = 0.01	735 ± 29
295.25 K, x1 = 0.057	832 ± 33
295.25 K, x1 = 0.086	730 ± 29
296.25 K, x1 = 0.433	985 ± 39
301.75 K, x1 = 0.565	920 ± 37
302.65 K, x1 = 0.049	876 ± 35
303.25 K, x1 = 0.291	858 ± 34
306.25 K, x1 = 0.027	738 ± 30
308.95 K, x1 = 0.157	948 ± 38
310.85 K, x1 = 0.433	962 ± 39
311.45 K, x1 = 0.184	912 ± 36
312.65 K, x1 = 0.033	694 ± 28
312.75 K, x1 = 0.057	860 ± 35
313.95 K, x1 = 0.108	864 ± 35
314.25 K, x1 = 0.01	584 ± 23
315.85 K, x1 = 0.086	687 ± 28
316.05 K, x1 = 0.291	858 ± 35
316.25 K, x1 = 0.565	920 ± 37
317.35 K, x1 = 0.736	859 ± 35
318.75 K, x1 = 0.433	951 ± 38
319.35 K, x1 = 0.049	790 ± 32
321.05 K, x1 = 0.157	912 ± 37
322.35 K, x1 = 0.027	612 ± 25
323.35 K, x1 = 0.057	784 ± 31
324.95 K, x1 = 0.433	940 ± 38
325.25 K, x1 = 0.736	857 ± 35
325.65 K, x1 = 0.184	885 ± 35
